Results as given in article PMC7948405, “Small-molecule control of neurotransmitter sulfonation” (The Journal of Biological Chemistry, 2020).
pKd: −log10 of the molar value.

Assays:
SULT1A3 [1] = target: T1, SULT1A3 (Homo sapiens, UniProt P0DMM9); assay: Equilibrium binding of CMP13 to SULT1A3 complexes (intrinsic fluorescence)
T1 construct: E. coli–optimized SULT coding regions were inserted into a pGEX-6P expression vector; N-His/GST/MBP triple tag (PreScission-cleavable) (N, cleaved yes); made in house; host or cells: E. coli BL21(DE3)
Source text: (§1) Figure 4 The inhibition mechanism. A, equilibrium binding. Binding was monitored via ligand-induced changes in SULT1A3 intrinsic fluorescence (λex = 290 nm, λem = 335 nm). […] Each dot represents the average of three independent titrations. Lines passing through the data represent the outcomes predicted by least-squares fitting of the averaged data to a single-binding-site model. B, representative PAP-binding reaction. PAP binding was monitored using a stopped-flow fluorimeter (λex = 290 nm, λem ≥ 330 nm (cutoff filter)). Reactions were initiated by rapidly mixing (1:1 v/v) a solution containing SULT1A3 (30 nM, dimer), CMP13 (1.0 μM, 100 × Kd), Tam (160 μM, 200 × Kd), KPO4 (50 mM), pH 7.5, 25(±2) °C, with a solution that was identical except that it lacked SULT1A3 and contained PAP (2.0 μM). The average of five independent progress curves shown and the kobs was obtained by fitting the data to a single exponential. C, pre–steady-state binding. PAP binding was monitored as described for panel B. Reactions were initiated by mixing (1:1 v/v) a solution containing SULT1A3 (30 nM, dimer), CMP13 [0 μM (black dots) or 1.0 μM, 100 × Kd (red and blue dots)], Tam [0 μM (black and blue dots) or 160 μM, 200 × Kd (red dots)], KPO4 (50 mM), pH 7.5, 25(±2) °C, with a solution that was identical except that it lacked SULT1A3 and contained PAP at twice the indicated concentrations. Each kobs value was determined in triplicate, and the averaged values are shown. kon and koff are given, respectively, by the slopes and intercepts obtained from linear least-squares fitting of the kobs vs [PAP] plot. PAP, 3′-phosphoadenosine-5′-phosphate; SULT1A3, sulfotransferase 1A3; Tam, 4-hydroxy-tamoxifen.
CMP13 binding to SULT1A3 was monitored via binding-induced changes in SULT1A3 intrinsic fluorescence (λex= 290 nm, λem= 335 nm ([17])). […] PAP binding was determined using the same protocol except that [PAP] was varied and CMP13 was 1.0 μM (100 × Ki). Titrations were performed in triplicate. Data were averaged and least-squares fit using a model that assumes a single binding site per monomer.

SULT1A3 [2] = target: T1, SULT1A3; assay: Pre-steady-state (stopped-flow fluorescence) binding of PAP to SULT1A3 complexes; conditions: E·CMP13 vs E
Source text: as §1
To resolve this uncertainty, PAP on- and off-rate constants for a series of open and closed complexes were determined using stopped-flow fluorescence. A representative binding reaction can be seen in Fig. 4B. The binding reactions were pseudo-first order in [PAP], and kobs values were obtained by fitting reaction progress curves to a single-exponential equation. On- and off-rate constants (see Table 3) are given by the plot slopes and intercepts.
Pre–steady-state binding of PAP to SULT1A3 was monitored via ligand-induced changes in SULT1A3 fluorescence using an Applied Photophysics SX20 stopped-flow spectrofluorometer. Fluorescence was measured at λex = 290 nm and λem ≥ 330 nm (using a cutoff filter). […] All reactions were pseudo first order with respect to [PAP]. kobs values, determined in triplicate at each PAP concentration, were obtained by least-squares fitting the average of five progress curves to a single-exponential equation. kon and koff, obtained by linear least-squares fitting, are given by the slopes and intercepts of four-point kobs-vs-[PAP] plots.

T1 sequence (P0DMM9 whole entry): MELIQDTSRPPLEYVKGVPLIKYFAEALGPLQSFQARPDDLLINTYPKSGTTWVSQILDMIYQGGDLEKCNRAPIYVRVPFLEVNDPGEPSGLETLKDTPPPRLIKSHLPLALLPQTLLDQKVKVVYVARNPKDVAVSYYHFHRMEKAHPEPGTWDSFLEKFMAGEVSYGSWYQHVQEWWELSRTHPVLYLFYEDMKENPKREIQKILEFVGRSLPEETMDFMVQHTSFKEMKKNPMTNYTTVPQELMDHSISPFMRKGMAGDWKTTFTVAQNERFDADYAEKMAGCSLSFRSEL

CC(C)Cc1ccc2cc(/C=C/C(N)=O)cnc2n1 [CMP13]
pKd (SULT1A3 [1]; complex E (unliganded, cap-open)): 6.89
pKd (SULT1A3 [1]; complex E·PAP (cap-closed), PAP 350 μM): 7.96
pKd (SULT1A3 [1]; complex E·PAP·Tam (cap held open), PAP 350 μM, Tam 160 μM): 6.88
fold tighter binding to cap-closed E·PAP than to open form E (SULT1A3 [1]; ratio of Kd values): 12 fold
fold decrease of the PAP off-rate constant caused by inhibitor (SULT1A3 [2]): ~14 fold
